Test [1] concerns the target T1, C. difficile toxin A (Clostridioides difficile, UniProt P16154).
T1 construct: Toxin A was isolated from a toxin producing strain of C. difficile; made in house; host or cells: Clostridium difficile ATCC 43255 (VPI strain 10463), native toxin from culture supernatant, not recombinant
The experiment in a line: Determination of binding affinity of SYNSORBs to toxin A, hemagglutination titer reduction (Example 4, FIG. 4). More on the design: species or system Clostridium difficile. Particulars: rabbit erythrocytes. As for the experimental part:
For the purposes of this invention, oligosaccharide sequences attached to solid supports which bind toxin A means those compositions which reduce endpoint titers from hemagglutination assays by at least 50%.
(§1) Fresh rabbit erythrocytes were washed once in phosphate buffered saline (PBS) and resuspended at a concentration of 4% (v/v) in cold PBS. Serial 2-fold dilutions (50 μl) of toxin A-containing solutions were made in cold PBS in U-shaped microtiter wells. An equal volume (50 μl) of rabbit erythrocytes was then added to each well and the microtiter plate was mixed gently. After incubating the plate for 4 hours at 4° C., the hemagglutination titer was visually assessed.
To assess the binding affinity of various SYNSORBs to toxin A, each SYNSORB was combined with toxin A as described in Example 1. Endpoint titers from hemagglutination assays using rabbit erythocytes were determined as described previously. […] Those SYNSORBs which reduced titers by greater than 50% were deemed to bind toxin A.

Test [2] concerns the target T1, C. difficile toxin A. The experiment in a line: Screening: neutralization of purified toxin A hemagglutination activity by SYNSORBs (Example 1, FIG. 1). It is filed as biochemical, Clostridium difficile. As for the experimental part:
The amount of toxin A adsorption to SYNSORB was determined by assaying supernatants for reduction of endpoint titers in hemagglutination assays relative to controls without any added SYNSORB. […] SYNSORBs 2, 5, 104, 105, and 134 neutralized about 50% of toxin A activity.
Toxin A was isolated from a toxin producing strain of C. difficile (ATCC 43255, VPI strain 10463) using slight modifications of the method of Sullivan et al..
C. difficile was grown in 2.3 liter of brain heart infusion broth (BHIB) in anaerobic jars for 72 hours at 37° C. The crude culture was centrifuged at 5,000× g for 20 minutes to sediment the bacteria. The resulting culture supernatant was carefully removed and solid ammonium sulfate (897 g) was added to make 60% saturation. […]
Fresh rabbit erythrocytes were washed once in phosphate buffered saline (PBS) and resuspended at a concentration of 4% (v/v) in cold PBS. […] After incubating the plate for 4 hours at 4° C., the hemagglutination titer was visually assessed. […]
After incubation, the SYNSORB was allowed to settle to the bottom of the tubes and the supernatants were carefully removed. Serial 2-fold dilutions of the supernatants were prepared and the hemagglutination endpoint determined as described above.
The extent of reduction in the endpoint in the presence of SYNSORB was determined by comparing the endpoint with that of controls in which SYNSORB was not added. […]

Test [3] deals with T1, C. difficile toxin A. The experiment in a line: Determination of optimal binding conditions (amount and incubation time) for toxin A neutralization, hemagglutination (Example 2, FIGS. 2 and 3). It is filed as biochemical, Clostridium difficile. Particulars: about 20 mg SYNSORB per 1 ml toxin A solution (20 mg/ml); 2 hours, 37° C.; FIG. 2. As for the experimental part:
as §1
The amount of SYNSORBS 52 and 90 required for maximal toxin A neutralization was determined by adding 1 ml of a purified toxin A solution to pre-weighed amounts of each SYNSORB in 1.5 ml microcentrifuge tubes. SYNSORB 52 samples were tested using 12.8, 21.6 and 43.3 mg amounts of SYNSORB 52; SYNSORB 90 samples were tested using 12.9, 19.2 and 42.3 mg amounts of SYNSORB 90. Samples were incubated for 2 hours at 37° C. on an end-over-end rotator. […]
The amount of neutralization in each sample was determined by comparing the endpoint titers of hemagglutination assays from samples with and without SYNSORB.
The length of incubation time required for optimal neutralization was determined by incubating microcentrifuge tubes containing 1 ml of purified toxin A solution and 20 mg of either SYNSORB 52 or SYNSORB 90. […]
The degree of neutralization at each incubation period was determined as described above.

The subject of test [4] is CDAD or PMC. The following applies: cited from earlier work; for patients in whom diarrhea returns after discontinuing antibiotic treatment: after oral Metronidazole or Vancomycin therapy, ref. [15]; for therapy effective, share of patients who suffer from CDAD or PMC: oral Metronidazole or Vancomycin with removal of offending drug and fluid replacement.

T1 sequence (P16154 whole entry, looked up): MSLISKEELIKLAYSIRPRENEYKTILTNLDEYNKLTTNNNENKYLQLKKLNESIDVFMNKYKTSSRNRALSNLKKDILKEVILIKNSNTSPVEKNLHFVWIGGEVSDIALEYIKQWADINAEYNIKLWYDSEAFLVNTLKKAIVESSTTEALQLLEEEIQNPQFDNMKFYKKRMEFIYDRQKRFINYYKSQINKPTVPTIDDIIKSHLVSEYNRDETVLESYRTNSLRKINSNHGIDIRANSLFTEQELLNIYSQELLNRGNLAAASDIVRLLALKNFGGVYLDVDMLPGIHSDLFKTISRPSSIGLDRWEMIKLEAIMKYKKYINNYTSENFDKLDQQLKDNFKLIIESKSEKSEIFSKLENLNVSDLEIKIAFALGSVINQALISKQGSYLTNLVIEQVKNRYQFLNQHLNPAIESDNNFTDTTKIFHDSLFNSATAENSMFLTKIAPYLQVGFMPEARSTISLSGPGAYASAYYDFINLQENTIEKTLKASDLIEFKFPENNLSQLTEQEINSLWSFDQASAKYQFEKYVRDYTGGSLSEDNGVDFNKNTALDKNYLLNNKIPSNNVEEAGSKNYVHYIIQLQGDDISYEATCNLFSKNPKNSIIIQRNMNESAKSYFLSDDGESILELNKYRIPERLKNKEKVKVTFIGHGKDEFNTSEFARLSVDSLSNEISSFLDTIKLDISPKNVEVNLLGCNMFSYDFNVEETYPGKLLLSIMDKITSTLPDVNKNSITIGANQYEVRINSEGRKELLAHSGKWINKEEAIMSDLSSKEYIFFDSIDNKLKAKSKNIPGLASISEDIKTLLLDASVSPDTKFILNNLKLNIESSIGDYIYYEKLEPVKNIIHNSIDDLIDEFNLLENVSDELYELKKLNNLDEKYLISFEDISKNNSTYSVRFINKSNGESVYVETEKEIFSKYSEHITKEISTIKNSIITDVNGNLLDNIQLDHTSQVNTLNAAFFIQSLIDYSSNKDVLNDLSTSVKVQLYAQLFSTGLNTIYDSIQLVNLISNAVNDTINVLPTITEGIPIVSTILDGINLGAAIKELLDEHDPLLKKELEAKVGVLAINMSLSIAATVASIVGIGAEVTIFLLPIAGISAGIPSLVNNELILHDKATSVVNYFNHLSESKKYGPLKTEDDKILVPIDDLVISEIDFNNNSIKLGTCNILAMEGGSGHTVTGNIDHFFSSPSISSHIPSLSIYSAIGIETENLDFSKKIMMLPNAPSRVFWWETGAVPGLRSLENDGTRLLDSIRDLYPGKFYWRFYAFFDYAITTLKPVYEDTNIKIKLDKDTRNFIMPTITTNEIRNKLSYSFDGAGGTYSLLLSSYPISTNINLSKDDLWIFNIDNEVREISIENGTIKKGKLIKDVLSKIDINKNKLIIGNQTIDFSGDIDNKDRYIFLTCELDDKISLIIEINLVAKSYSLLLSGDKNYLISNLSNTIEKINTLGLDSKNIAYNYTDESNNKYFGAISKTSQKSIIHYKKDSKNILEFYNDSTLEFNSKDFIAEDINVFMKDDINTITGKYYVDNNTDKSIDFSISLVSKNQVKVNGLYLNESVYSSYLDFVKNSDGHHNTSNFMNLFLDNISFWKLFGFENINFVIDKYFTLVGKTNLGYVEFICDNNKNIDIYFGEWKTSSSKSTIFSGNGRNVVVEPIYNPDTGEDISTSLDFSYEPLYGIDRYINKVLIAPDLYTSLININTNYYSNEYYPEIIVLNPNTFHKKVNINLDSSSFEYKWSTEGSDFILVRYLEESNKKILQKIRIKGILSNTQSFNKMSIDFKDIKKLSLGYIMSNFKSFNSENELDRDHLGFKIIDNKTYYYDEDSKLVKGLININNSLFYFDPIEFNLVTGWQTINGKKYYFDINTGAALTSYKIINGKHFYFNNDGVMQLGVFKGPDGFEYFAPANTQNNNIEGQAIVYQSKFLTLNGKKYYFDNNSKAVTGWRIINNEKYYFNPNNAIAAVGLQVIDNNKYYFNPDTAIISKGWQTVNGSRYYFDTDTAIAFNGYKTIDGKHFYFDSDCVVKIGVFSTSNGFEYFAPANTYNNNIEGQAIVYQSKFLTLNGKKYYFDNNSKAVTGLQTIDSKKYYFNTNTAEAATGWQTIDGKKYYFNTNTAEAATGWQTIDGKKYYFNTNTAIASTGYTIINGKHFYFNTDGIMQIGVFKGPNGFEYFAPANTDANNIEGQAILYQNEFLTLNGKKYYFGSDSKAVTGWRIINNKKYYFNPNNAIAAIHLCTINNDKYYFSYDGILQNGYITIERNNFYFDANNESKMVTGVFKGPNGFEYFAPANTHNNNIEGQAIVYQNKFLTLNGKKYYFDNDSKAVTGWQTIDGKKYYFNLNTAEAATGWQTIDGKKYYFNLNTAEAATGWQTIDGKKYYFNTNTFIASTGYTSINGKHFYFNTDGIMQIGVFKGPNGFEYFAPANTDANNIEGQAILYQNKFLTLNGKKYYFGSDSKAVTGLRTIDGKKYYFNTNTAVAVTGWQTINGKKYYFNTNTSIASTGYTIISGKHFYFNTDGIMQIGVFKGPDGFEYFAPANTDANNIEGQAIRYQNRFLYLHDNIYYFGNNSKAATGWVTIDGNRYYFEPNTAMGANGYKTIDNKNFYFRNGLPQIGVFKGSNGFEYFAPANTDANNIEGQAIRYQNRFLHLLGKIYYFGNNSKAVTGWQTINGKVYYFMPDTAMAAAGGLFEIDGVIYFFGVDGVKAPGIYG

Consider αNeuAc(2-6)βGal(1-4)βGlc [SYNSORB 89], for which, in test [1], the “binding to toxin A (criterion: titer reduced by greater than 50%)” value is recorded as “appear not to bind toxin A”.

Take αGal(1-3)βGal(1-4)βGlc [SYNSORB 90]: the “neutralization of toxin A activity (in words)” value in test [2] (purified toxin A, hemagglutination vs controls without SYNSORB) was “as effective at neutralizing toxin A activity”. Moreover, in test [3], the “neutralization of toxin A activity” value is recorded as “more than 75%”.

As to αGal(1-4)βGal(1-4)βGlc [SYNSORB 68], the “binding to toxin A (criterion: titer reduced by greater than 50%)” value in test [1] was “bind toxin A”.

On to αGal(1-3)βGal(1-3)βGlcNAc [SYNSORB 134], for which the “removal/neutralization of toxin A activity (reduction of endpoint titers in hemagglutination assays)” value in test [2] (purified toxin A 0.5 ml, 10.1 to 17.5 mg SYNSORB, room temperature, 2 hours, rabbit erythrocytes) is listed as “about 50%”.

On to βGal(1-4)βGlcNAc [SYNSORB 34], for which the “binding to toxin A (criterion: titer reduced by greater than 50%)” value in test [1] was “appear not to bind toxin A”.

With `CN[C@H](CC(C)C)C(=O)N[C@H]1C(=O)N[C@@H](CC(N)=O)C(=O)N[C@H]2C(=O)N[C@H]3C(=O)N[C@H](C(=O)N[C@H](C(=O)O)c4cc(O)cc(O)c4-c4cc3ccc4O)[C@H](O)c3ccc(c(Cl)c3)Oc3cc2cc(c3O[C@@H]2O[C@H](CO)[C@@H](O)[C@H](O)[C@H]2O[C@H]2C[C@](C)(N)[C@H](O)[C@H](C)O2)Oc2ccc(cc2Cl)[C@H]1O` [Vancomycin], in test [4], the “patients in whom diarrhea returns after discontinuing antibiotic treatment” value was “about 20%” and the “therapy effective, share of patients who suffer from CDAD or PMC” value is “about 80%”.

As to `Cc1ncc([N+](=O)[O-])n1CCO` [Metronidazole], in test [4], the “patients in whom diarrhea returns after discontinuing antibiotic treatment” value was “about 20%” and the “therapy effective, share of patients who suffer from CDAD or PMC” value is recorded as “about 80%”.

The record behind these values is patent publication US5484773A, “Treatment of antibiotic associated diarrhea” (priority 1994, dated 1996).
